Measurements reported in patent publication US20150315188A1, “COMPOUNDS AND METHODS FOR TREATMENT OF HYPERTENSION” (MEDIVATION TECHNOLOGIES, INC., priority 2012, published 2015).

What follows are compounds tested against T1, Human adrenergic α1B receptor (Homo sapiens, UniProt P35368) (assay: Radioligand binding, adrenergic α1B (Protocol Group B)). Conditions: 0.1 μM compound; Protocol Group B; 0.1 µM.
T1 sequence (P35368 1-520): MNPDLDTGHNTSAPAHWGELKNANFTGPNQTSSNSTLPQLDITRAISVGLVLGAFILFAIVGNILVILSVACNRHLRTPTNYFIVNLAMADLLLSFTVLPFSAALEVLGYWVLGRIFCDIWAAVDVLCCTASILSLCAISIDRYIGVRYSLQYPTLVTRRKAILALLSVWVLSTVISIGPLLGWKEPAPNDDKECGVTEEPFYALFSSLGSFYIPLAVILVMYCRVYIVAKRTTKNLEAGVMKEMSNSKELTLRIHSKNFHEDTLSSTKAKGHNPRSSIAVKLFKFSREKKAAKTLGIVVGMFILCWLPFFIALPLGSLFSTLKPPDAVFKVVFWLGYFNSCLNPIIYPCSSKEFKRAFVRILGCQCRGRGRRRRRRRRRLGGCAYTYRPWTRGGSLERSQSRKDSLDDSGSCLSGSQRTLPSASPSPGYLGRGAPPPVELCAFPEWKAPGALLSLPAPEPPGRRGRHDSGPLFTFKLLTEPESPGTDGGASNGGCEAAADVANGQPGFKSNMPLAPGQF
Parameters: purchased Milipore (Millipore)
How it was run: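 Values are percent inhibition of specific [3H]prazosin (0.3 nM) binding or estimated Ki, from filtration counting. Human α1B recombinant membranes, Tris-HCl pH 7.4 buffer with MgCl2 and EDTA, 60 min at 25 °C, 1% DMSO vehicle; 10 μM prazosin defined nonspecific binding.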

| Structure (SMILES) | Percentage inhibition of ligand binding, Adrenergic α1B (0.1 μM) [%] |
| --- | --- |
| Cc1ccc2c(c1F)c1c(n2CC(C)(O)c2cccnc2)CCN2CCCC12 (single isomer, unassigned) [87b] | 16 |
| Cc1ccc2c(c1)c1c(n2CC(C)(O)c2cccnc2)CC2CCCN2C1 (single isomer, unassigned) [38b] | 15 |
| CC(O)(Cn1c2c(c3cc(F)cc(Cl)c31)C1CCCN1CC2)c1cccnc1 (single isomer, unassigned) [89c] | 0 |
| Cc1cc(F)cc2c3c(n(CC(O)c4ccncc4)c12)CCN1CCCC31 (single isomer, unassigned) [136b] | 24 |

Same assay, conditions: 0.1 μM compound; Protocol Group B; read-out: Percentage inhibition of ligand binding, Adrenergic α1B (0.1 μM)

| Structure (SMILES) | inhibition at 0.1 µM [%] |
| --- | --- |
| Cc1ccc2c(c1)c1c(n2CC(C)(O)c2cnc3ccccc3c2)CCN(C)C1 (single isomer, unassigned) [32a] | -1 |

Same assay, conditions: 0.3 μM compound; Protocol Group B; 0.3 µM

| Structure (SMILES) | Percentage inhibition of ligand binding, Adrenergic α1B (0.3 μM) [%] |
| --- | --- |
| Cc1ccc2c(c1F)c1c(n2CC(C)(O)c2cccnc2)CCN2CCCC12 (single isomer, unassigned) [87b] | 35 |
| CC(O)(Cn1c2c(c3cc(F)cc(Cl)c31)C1CCCN1CC2)c1cccnc1 (single isomer, unassigned) [89c] | 22 |
| Cc1cc(F)cc2c3c(n(CC(O)c4ccncc4)c12)CCN1CCCC31 (single isomer, unassigned) [136b] | 63 |

Same assay, conditions: 0.3 μM compound; Protocol Group B; read-out: Percentage inhibition of ligand binding, Adrenergic α1B (0.3 μM)

| Structure (SMILES) | inhibition at 0.3 µM [%] |
| --- | --- |
| Cc1ccc2c(c1)c1c(n2CC(C)(O)c2cccnc2)CC2CCCN2C1 (single isomer, unassigned) [38b] | 33 |
| Cc1ccc2c(c1)c1c(n2CC(C)(O)c2cnc3ccccc3c2)CCN(C)C1 (single isomer, unassigned) [32a] | 26 |

Same assay, conditions: Protocol Group B; estimated Ki

| Structure (SMILES) | Ki [nM] |
| --- | --- |
| Cc1ccc2c(c1)c1c(n2CC(C)(O)c2cccnc2)CC2CCCN2C1 (single isomer, unassigned) [38b] | 179 |

These compounds were tested against T2, Human adrenergic α2B receptor (Homo sapiens, UniProt P18089) (assay: β-Arrestin GPCR functional assay, adrenergic α2B (Protocol B)). Conditions: β-arrestin, antagonist vs nor-epinephrine EC80; read-out: IC50 Adrenergic α2B.
T2 sequence (P18089 1-450): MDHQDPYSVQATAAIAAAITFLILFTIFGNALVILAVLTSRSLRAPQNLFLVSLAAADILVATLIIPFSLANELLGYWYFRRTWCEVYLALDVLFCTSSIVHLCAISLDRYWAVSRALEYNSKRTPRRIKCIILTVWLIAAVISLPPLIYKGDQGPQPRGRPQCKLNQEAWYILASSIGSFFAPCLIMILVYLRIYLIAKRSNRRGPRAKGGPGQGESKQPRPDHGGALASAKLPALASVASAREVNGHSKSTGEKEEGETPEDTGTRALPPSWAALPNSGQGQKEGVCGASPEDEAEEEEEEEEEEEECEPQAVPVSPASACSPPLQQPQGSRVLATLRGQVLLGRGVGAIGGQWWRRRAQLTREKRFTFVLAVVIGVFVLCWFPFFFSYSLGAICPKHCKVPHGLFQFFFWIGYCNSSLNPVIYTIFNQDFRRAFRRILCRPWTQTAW
Type: cell-based
Experimental: To evaluate the activity of compounds in β-Arrestin GPCR functional assays, recombinant CHO cell line (DiscoveRX), over expressed with human adrenergic α2B receptor were used. The experiment was done with kit of DiscoveRX as per recommended protocol of the supplier. Cells were harvested from culture flask using cell dissociation solution (CDS) and plated at a density of 12,000 cells/well in CP reagent (supplied with the kit) in a half area 96-well white polystyrene plate. After 24 h incubation at 37° C., compounds at various concentrations in 1% (final) DMSO were charged to the cells for 30 min at 37° C. Active nor-epinephrine (-NE) at its EC80 concentrations (50 nM) were then added to the cells and incubated for another 90 min at 37° C. Detection mix was prepared by mixing of Path Hunter cell assay buffer, Emerald II solution and Galactone star solution in a ratio of 19:5:1 and incubated with the cells for 60 min at RT in the dark. The reading was taken in Envision at luminescence mode. Biochemical assay results are presented as the percent Inhibition in Table B2a, or IC50 values in Table B2b.

| Structure (SMILES) | IC50 [nM] |
| --- | --- |
| Cc1ccc2c(c1F)c1c(n2CC(C)(O)c2cccnc2)CCN2CCCC12 (single isomer, unassigned) [87b] | 284 |
| Cc1ccc2c(c1)c1c(n2CC(C)(O)c2cccnc2)CC2CCCN2C1 (single isomer, unassigned) [38b] | 237 |
| CC(O)(Cn1c2c(c3cc(F)cc(Cl)c31)C1CCCN1CC2)c1cccnc1 (single isomer, unassigned) [89c] | 45.5 |
| Cc1cc(F)cc2c3c(n(CC(O)c4ccncc4)c12)CCN1CCCC31 (single isomer, unassigned) [136b] | 68.3 |
| Cc1ccc2c(c1)c1c(n2CC(C)(O)c2cnc3ccccc3c2)CCN(C)C1 (single isomer, unassigned) [32a] | 396 |

These compounds were tested against T3, Human adrenergic α2A receptor (Homo sapiens, UniProt P08913) (assay: Radioligand binding, adrenergic α2A (Protocol Group B)). Conditions: 0.1 μM compound; Protocol Group B; 0.1 µM.
T3 sequence (P08913 1-465): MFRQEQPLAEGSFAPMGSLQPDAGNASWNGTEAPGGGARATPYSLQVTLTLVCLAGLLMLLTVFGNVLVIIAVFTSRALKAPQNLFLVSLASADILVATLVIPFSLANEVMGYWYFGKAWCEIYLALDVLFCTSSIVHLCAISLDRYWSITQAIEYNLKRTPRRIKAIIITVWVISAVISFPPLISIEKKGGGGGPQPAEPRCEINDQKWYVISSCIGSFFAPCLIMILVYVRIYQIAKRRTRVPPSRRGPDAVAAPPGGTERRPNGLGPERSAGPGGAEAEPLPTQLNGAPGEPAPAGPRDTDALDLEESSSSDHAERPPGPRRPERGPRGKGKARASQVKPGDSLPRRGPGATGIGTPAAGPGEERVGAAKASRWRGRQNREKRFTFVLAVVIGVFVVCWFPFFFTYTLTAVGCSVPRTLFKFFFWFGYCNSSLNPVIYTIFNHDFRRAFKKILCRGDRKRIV
Parameters: purchased Milipore (Millipore)
How it was run: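 Compounds (1% DMSO vehicle, various concentrations) competed against 2 nM [^3H]MK-912 on recombinant receptor membranes for 60 min at 25° C, Tris-HCl pH 7.4 buffer with Mg2+, Ca2+, BSA. Bound radioligand filtered and counted; 10 μM rauwolscine set nonspecific binding. Values: percent inhibition of specific binding or estimated Ki.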

| Structure (SMILES) | Percentage inhibition of ligand binding, Adrenergic α2A (0.1 μM) [%] |
| --- | --- |
| Cc1ccc2c(c1F)c1c(n2CC(C)(O)c2cccnc2)CCN2CCCC12 (single isomer, unassigned) [87b] | 31 |
| Cc1ccc2c(c1)c1c(n2CC(C)(O)c2cccnc2)CC2CCCN2C1 (single isomer, unassigned) [38b] | 16 |
| CC(O)(Cn1c2c(c3cc(F)cc(Cl)c31)C1CCCN1CC2)c1cccnc1 (single isomer, unassigned) [89c] | 24 |
| Cc1cc(F)cc2c3c(n(CC(O)c4ccncc4)c12)CCN1CCCC31 (single isomer, unassigned) [136b] | 45 |

Same assay, conditions: 0.1 μM compound; Protocol Group B; read-out: Percentage inhibition of ligand binding, Adrenergic α2A (0.1 μM)

| Structure (SMILES) | inhibition at 0.1 µM [%] |
| --- | --- |
| Cc1ccc2c(c1)c1c(n2CC(C)(O)c2cnc3ccccc3c2)CCN(C)C1 (single isomer, unassigned) [32a] | 10 |

Same assay, conditions: 0.3 μM compound; Protocol Group B; 0.3 µM

| Structure (SMILES) | Percentage inhibition of ligand binding, Adrenergic α2A (0.3 μM) [%] |
| --- | --- |
| Cc1ccc2c(c1F)c1c(n2CC(C)(O)c2cccnc2)CCN2CCCC12 (single isomer, unassigned) [87b] | 53 |
| CC(O)(Cn1c2c(c3cc(F)cc(Cl)c31)C1CCCN1CC2)c1cccnc1 (single isomer, unassigned) [89c] | 40 |
| Cc1cc(F)cc2c3c(n(CC(O)c4ccncc4)c12)CCN1CCCC31 (single isomer, unassigned) [136b] | 72 |

Same assay, conditions: 0.3 μM compound; Protocol Group B; read-out: Percentage inhibition of ligand binding, Adrenergic α2A (0.3 μM)

| Structure (SMILES) | inhibition at 0.3 µM [%] |
| --- | --- |
| Cc1ccc2c(c1)c1c(n2CC(C)(O)c2cccnc2)CC2CCCN2C1 (single isomer, unassigned) [38b] | 42 |
| Cc1ccc2c(c1)c1c(n2CC(C)(O)c2cnc3ccccc3c2)CCN(C)C1 (single isomer, unassigned) [32a] | 37 |

Same assay, conditions: Protocol Group B; estimated Ki

| Structure (SMILES) | Ki [nM] |
| --- | --- |
| Cc1ccc2c(c1)c1c(n2CC(C)(O)c2cccnc2)CC2CCCN2C1 (single isomer, unassigned) [38b] | 291 |

The compounds below were run against T2, Human adrenergic α2B receptor (assay: Radioligand binding, adrenergic α2B (Protocol Group B)). Conditions: 10 nM compound; Protocol Group B; 0.01 µM.
Parameters: purchased Milipore (Millipore)
How it was run: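 Compounds at various concentrations in 1% DMSO were tested on recombinant membranes in Tris-HCl pH 7.4 buffer containing MgCl2, CaCl2 and 0.2% BSA.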

| Structure (SMILES) | Percentage inhibition of ligand binding, Adrenergic α2B (10 nM) [%] |
| --- | --- |
| Cc1ccc2c(c1F)c1c(n2CC(C)(O)c2cccnc2)CCN2CCCC12 (single isomer, unassigned) [87b] | 37 |
| CC(O)(Cn1c2c(c3cc(F)cc(Cl)c31)C1CCCN1CC2)c1cccnc1 (single isomer, unassigned) [89c] | 54 |
| Cc1cc(F)cc2c3c(n(CC(O)c4ccncc4)c12)CCN1CCCC31 (single isomer, unassigned) [136b] | 76 |

Same assay, conditions: 10 nM compound; Protocol Group B; read-out: Percentage inhibition of ligand binding, Adrenergic α2B (10 nM)

| Structure (SMILES) | inhibition at 0.01 µM [%] |
| --- | --- |
| Cc1ccc2c(c1)c1c(n2CC(C)(O)c2cccnc2)CC2CCCN2C1 (single isomer, unassigned) [38b] | 38 |
| Cc1ccc2c(c1)c1c(n2CC(C)(O)c2cnc3ccccc3c2)CCN(C)C1 (single isomer, unassigned) [32a] | 28 |

Same assay, conditions: 30 nM compound; Protocol Group B; 0.03 µM

| Structure (SMILES) | Percentage inhibition of ligand binding, Adrenergic α2B (30 nM) [%] |
| --- | --- |
| Cc1ccc2c(c1F)c1c(n2CC(C)(O)c2cccnc2)CCN2CCCC12 (single isomer, unassigned) [87b] | 66 |
| CC(O)(Cn1c2c(c3cc(F)cc(Cl)c31)C1CCCN1CC2)c1cccnc1 (single isomer, unassigned) [89c] | 78 |
| Cc1cc(F)cc2c3c(n(CC(O)c4ccncc4)c12)CCN1CCCC31 (single isomer, unassigned) [136b] | 96 |

Same assay, conditions: 30 nM compound; Protocol Group B; read-out: Percentage inhibition of ligand binding, Adrenergic α2B (30 nM)

| Structure (SMILES) | inhibition at 0.03 µM [%] |
| --- | --- |
| Cc1ccc2c(c1)c1c(n2CC(C)(O)c2cccnc2)CC2CCCN2C1 (single isomer, unassigned) [38b] | 72 |
| Cc1ccc2c(c1)c1c(n2CC(C)(O)c2cnc3ccccc3c2)CCN(C)C1 (single isomer, unassigned) [32a] | 54 |

Same assay, conditions: 0.1 μM compound; Protocol Group B; read-out: Percentage inhibition of ligand binding, Adrenergic α2B (0.1 μM)

| Structure (SMILES) | inhibition at 0.1 µM [%] |
| --- | --- |
| Cc1ccc2c(c1)c1c(n2CC(C)(O)c2cccnc2)CC2CCCN2C1 (single isomer, unassigned) [38b] | 90 |

Same assay, conditions: Protocol Group B; estimated Ki; read-out: Ki α2B

| Structure (SMILES) | Ki [nM] |
| --- | --- |
| Cc1ccc2c(c1F)c1c(n2CC(C)(O)c2cccnc2)CCN2CCCC12 (single isomer, unassigned) [87b] | 23.8 |
| Cc1ccc2c(c1)c1c(n2CC(C)(O)c2cccnc2)CC2CCCN2C1 (single isomer, unassigned) [38b] | 7.16 |
| CC(O)(Cn1c2c(c3cc(F)cc(Cl)c31)C1CCCN1CC2)c1cccnc1 (single isomer, unassigned) [89c] | 7.6 |
| Cc1cc(F)cc2c3c(n(CC(O)c4ccncc4)c12)CCN1CCCC31 (single isomer, unassigned) [136b] | 2.45 |
| Cc1ccc2c(c1)c1c(n2CC(C)(O)c2cnc3ccccc3c2)CCN(C)C1 (single isomer, unassigned) [32a] | 7.9 |
